Biological target: T1, mTor (Homo sapiens, UniProt P42345)
T1 construct: purchased Millipore/Merck KGA of Europe (panel screening service)
Assay: mTor kinase inhibition, % activity at 0.03 μM (kinases panel screening)
Type: biochemical
Details: 0.03 μM compound
Text: In vitro kinase inhibition activities included Pi3k and mTor activities can be tested with Millipore/Merck KGA of Europe in their kinases panel screening. Animal antitumor activity testing can be conducted by various cancer xenograft models for a compound of formula I. […]

| Molecule | mTor % activity @0.03 μM [%] |
| --- | --- |
| CC(=O)Nc1ccc(-c2ccc3ncc4c(c3c2)n(-c2ccc(C(C)(C)C)cc2)c2nnc(C)n42)cn1 [N-{5-[16-(4-tert-butylphenyl)-12-methyl-8,11,13,14,16-pentaazatetracyclo[8.6.0.0^2,^7.0^11,^1^5]-hexadeca-1(10), 2,4,6,8,12,14-heptaen-4-yl]pyridin-2-yl}acetamide] | 58 |
| N-(5-{16-[4-(1-cyano-1-methylethyl)phenyl]-8,11,13,14,16-pentaazatetracyclo[8.6.0.0^2,^7.0^11,^1^5]-hexadeca-1(10), 2,4,6,8,12,14-heptaen-4-yl)}pyridin-2-yl)-2-(thian-4-ylamino)acetamide | 103 |
| N-(5-{16-[4-(1-cyano-1-methylethyl)phenyl]-8,11,13,14,16-pentaazatetracyclo[8.6.0.0^2,^7.0^11,^1^5]-hexadeca-1(10),2,4,6,8,12,14-heptaen-4-yl)}pyridin-2-yl)-2-(pyrrolidin-1-yl)acetamide | −2 |
| CC(C)(C)c1ccc(-n2c3c4cc(-c5cnc6ccccc6c5)ccc4ncc3n3cnnc23)cc1 [3-quinoline; H; CH3, CH3; CH3, 16-(4-tert-butylphenyl)-4-(quinolin-3-yl)-8,11,13,14,16-pentaazatetracyclo[8.6.0.0^2,^7.0^11,^1^5]-hexadeca-1(10), 2,4,6,8,12,14-heptaene] | 22 |
| N-{5-[16-(4-tert-butylphenyl)-8,11,13,14,16-pentaazatetracyclo[8.6.0.0^2,^7.0^11,^1^5]-hexadeca-1(10),2,4,6,8,12,14-heptaen-4-yl]pyridin-2-yl}-2-(methylamino)acetamide | 8 |
| CC(C)(C#N)c1ccc(-n2c3c4cc(-c5cncnc5)ccc4ncc3n3cnnc23)cc1 [5-pyrimidine; H; CH3, CH3; CN, 2-methyl-2-{4-[4-(pyrimidin-5-yl)-8,11,13,14,16-pentaazatetracyclo[8.6.0.0^2,^7.0^11,^1^5]hexadeca-1(10),2,4,6,8,12,14-heptaen-16-yl]phenyl}propanenitrile] | 64 |
| CC(C)(C#N)c1ccc(-n2c3c4cc(-c5ccnc6[nH]ccc56)ccc4ncc3n3cnnc23)cc1 [2-methyl-2-[4-(4-{1H-pyrrolo[2,3-b]pyridin-4-yl}-8,11,13,14,16-pentaazatetracyclo-[8.6.0.0^2,^7.0^11,^1^5]hexadeca-1(10),2,4,6,8,12,14-heptaen-16-yl)phenyl]propanenitrile] | 70 |
| COc1ccc(-c2ccc3ncc4c(c3c2)n(-c2ccc(C(C)(C)C)cc2)c2nncn42)cn1 [2-methoxy-5-pyridine; H; CH3, CH3; CH3, 16-(4-tert-butylphenyl)-4-(6-methoxypyridin-3-yl)-8,11,13,14,16-pentaazatetracyclo-[8.6.0.0^2,^7.0^11,^1^5]hexadec-1(10),2,4,6,8,12,14-heptaene] | 15 |
| CCc1nnc2n(-c3ccc(C(C)(C)C#N)cc3)c3c4cc(-c5cncnc5)ccc4ncc3n12 [5-pyrimidine; CH2CH3; CH3, CH3; CN, 2-{4-[12-ethyl-4-(pyrimidin-5-yl)-8,11,13,14,16-pentaazatetracyclo[8.6.0.0^2,^7.0^11,^1^5]-hexadeca-1(10),2,4,6,8,12,14-heptaen-16-yl]phenyl}-2-methylpropanenitrile] | 94 |
| Cc1nnc2n(-c3ccc(C(C)(C)C#N)cc3)c3c4cc(-c5cncnc5)ccc4ncc3n12 [5-pyrimidine; CH3; CH3, CH3; CN, 2-methyl-2-{4-[12-methyl-4-(pyrimidin-5-yl)-8,11,13,14,16-pentaazatetracyclo-[8.6.0.0^2,^7.0^11,^1^5]hexadeca-1(10),2,4,6,8,12,14-heptaen-16-yl]phenyl}propanenitrile] | 90 |
| CC(C)(C)c1ccc(-n2c3c4cc(-c5cccnc5)ccc4ncc3n3cnnc23)cc1 [3-pyridine; H; CH3, CH3; CH3, 16-(4-tert-butylphenyl)-4-(pyridin-3-yl)-8,11,13,14,16-pentaazatetracyclo[8.6.0.0^2,^7.0^11,^1^5]-hexadeca-1(10), 2,4,6,8,12,14-heptaene] | −4 |
| COc1ccc(-c2ccc3ncc4c(c3c2)n(-c2ccc(C(C)(C)C)cc2)c2nnc(C)n42)cn1 [2-methoxy-5-pyridine; CH3; CH3, CH3; CH3, 16-(4-tert-butylphenyl)-4-(6-methoxypyridin-3-yl)-12-methyl-8,11,13,14,16-pentaazatetra-cyclo[8.6.0.0^2,^7.0^11,^1^5]hexadeca-1(10), 2,4,6,8,12,14-heptaene] | 97 |
| N-{5-[16-(4-tert-butylphenyl)-12-ethyl-8,11,13,14,16-pentaazatetracyclo[8.6.0.0^2,^7.0^11,^1^5]-hexadeca-1(10), 2,4,6,8,12,14-heptaen-4-yl]pyridin-2-yl}-2-(methylamino)acetamide | 40 |
| Cc1nnc2n(-c3ccc(C(C)(C)C)cc3)c3c4cc(-c5ccc(N)nc5)ccc4ncc3n12 [5-pyridin-2-amine; CH3; CH3, CH3; CH3, 5-[16-(4-tert-butylphenyl)-12-methyl-8,11,13,14,16-pentaazatetracyclo[8.6.0.0^2,^7.0^11,^1^5]-hexadeca-1(10), 2,4,6,8,12,14-heptaen-4-yl]pyridin-2-amine] | 34 |
| CC(C)(C)c1ccc(-n2c3c4cc(-c5cnc6[nH]ccc6c5)ccc4ncc3n3cnnc23)cc1 [16-(4-tert-butylphenyl)-4-{1H-pyrrolo[2,3-b]pyridin-5-yl}-8,11,13,14,16-pentaazatetracyclo-[8.6.0.0^2,^7.0^11,^1^5]hexadeca-1(10), 2,4,6,8,12,14-heptaene] | −15 |
| 5-[16-(4-tert-butylphenyl)-12-ethyl-8,11,13,14,16-pentaazatetracyclo[8.6.0.0^2,^7.0^11,^1^5]hexadeca-1(10),2,4,6,8,12,14-heptaen-4-yl]-N-[2-(pyrrolidin-1-yl)ethyl]pyridin-2-amine | 84 |
| Cc1nnc2n(-c3ccc(C(C)(C)C#N)cc3)c3c4cc(-c5cnc6[nH]ccc6c5)ccc4ncc3n12 [2-methyl-2-[4-(12-methyl-4-{1H-pyrrolo[2,3-b]pyridin-5-yl}-8,11,13,14,16-pentaazatetra-cyclo[8.6.0.0^2,^7.0^11,^1^5]hexadeca-1(10),2,4,6,8,12,14-heptaen-16-yl)phenyl]propanenitrile] | 15 |
| 5-[16-(4-tert-butylphenyl)-12-ethyl-8,11,13,14,16-pentaazatetracyclo[8.6.0.0^2,^7.0^11,^1^5]hexadeca-1(10),2,4,6,8,12,14-heptaen-4-yl]-N-[2-(morpholin-4-yl)ethyl]pyridin-2-amine | 102 |

More lines, now with the values ahead:

| mTor % activity @0.03 μM [%] | Molecule |
| --- | --- |
| 21 | C#CC(C)(C)c1ccc(-n2c3c4cc(-c5ccc(N)nc5)ccc4ncc3n3c(CC)nnc23)cc1 [5-pyridin-2-amine; CH2CH3; CH3, CH3; CN, 5-{12-ethyl-16-[4-(2-methylbut-3-yn-2-yl)phenyl]-8,11,13,14,16-pentaazatetracyclo-[8.6.0.0^2,^7.0^11,^1^5]hexadeca-1(10),2,4,6,8,12,14-heptaen-4-yl}pyridin-2-amine] |
| 8 | N-(5-{16-[4-(1-cyano-1-methylethyl)phenyl]-8,11,13,14,16-pentaazatetracyclo[8.6.0.0^2,^7.0^11,^1^5]-hexadeca-1(10), 2,4,6,8,12,14-heptaen-4-yl)}pyridin-2-yl)-2-(4-methylpiperazin-1-yl)acetamide |
| 92 | N-{5-[16-(4-tert-butylphenyl)-12-ethyl-8,11,13,14,16-pentaazatetracyclo[8.6.0.0^2,^7.0^11,^1^5]-hexadeca-(10),2,4,6,8,12,14-heptaen-4-yl]pyridin-2-yl}-2-(morpholin-4-yl)acetamide |
| 8 | 2-amino-N-(5-{16-[4-(1-cyano-1-methylethyl)phenyl]-8,11,13,14,16-pentaazatetra-cyclo[8.6.0.0^2,^7.0^11,^1^5]hexadeca-1(10), 2,4,6,8,12,14-heptaen-4-yl)}pyridin-2-yl)acetamide |
| 91 | N-{5-[16-(4-tert-butylphenyl)-12-ethyl-8,11,13,14,16-pentaazatetracyclo[8.6.0.0^2,^7.0^11,^1^5]-hexadeca-1(10), 2,4,6,8,12,14-heptaen-4-yl]pyridin-2-yl}-2-(pyrrolidin-1-yl)acetamide |
| 104 | Cc1nnc2n(-c3ccc(C(C)(C)C)cc3)c3c4cc(-c5cncnc5)ccc4ncc3n12 [5-pyrimidine; CH3; CH3, CH3; CH3, 16-(4-tert-butylphenyl)-12-methyl-4-(pyrimidin-5-yl)-8,11,13,14,16-pentaazatetracyclo-[8.6.0.0^2,^7.0^11,^1^5]hexadeca-1(10), 2,4,6,8,12,14-heptaene] |
| −6 | CC(=O)Nc1ccc(-c2ccc3ncc4c(c3c2)n(-c2ccc(C(C)(C)C)cc2)c2nncn42)cn1 [N-{5-[16-(4-tert-butylphenyl)-8,11,13,14,16-pentaazatetracyclo[8.6.0.0^2,^7.0^11,^1^5]hexadeca-1(10),2,4,6,8,12,14-heptaen-4-yl]pyridin-2-yl}acetamide] |
| 39 | CC(C)(C)c1ccc(-n2c3c4cc(-c5cncnc5)ccc4ncc3n3cnnc23)cc1 [5-pyrimidine; H; CH3, CH3; CH3, 16-(4-tert-butylphenyl)-4-(pyrimidin-5-yl)-8,11,13,14,16-pentaazatetracyclo[8.6.0.0^2,^7.0^11,^1^5]-hexadeca-1(10), 2,4,6,8,12,14-heptaene] |
| 74 | CC(=O)Nc1ccc(-c2ccc3ncc4c(c3c2)n(-c2ccc(C(C)(C)C#N)cc2)c2nnc(C)n42)cn1 [N-(5-{16-[4-(1-cyano-1-methylethyl)phenyl]-12-methyl-8,11,13,14,16-pentaazatetracyclo-[8.6.0.0^2,^7.0^11,^1^5]hexadeca-1(10),2,4,6,8,12,14-heptaen-4-yl}pyridin-2-yl)acetamide] |
